Each compound was assayed against human adenosine A2b receptor (Homo sapiens (Human), UniProt P29275) (assay: Cellular in vitro reporter gene test for A2b receptor activity (CHO-K1, CRE-luciferase, NECA stimulation)). Details: recombinant CHO-K1 cell line, CRE-luciferase reporter, antagonism of EC50 concentration of NECA; in some cases means of several determinations, rounded to two significant figures; read-out: A2b receptor IC50.
Sequence of human adenosine A2b receptor (P29275 whole entry): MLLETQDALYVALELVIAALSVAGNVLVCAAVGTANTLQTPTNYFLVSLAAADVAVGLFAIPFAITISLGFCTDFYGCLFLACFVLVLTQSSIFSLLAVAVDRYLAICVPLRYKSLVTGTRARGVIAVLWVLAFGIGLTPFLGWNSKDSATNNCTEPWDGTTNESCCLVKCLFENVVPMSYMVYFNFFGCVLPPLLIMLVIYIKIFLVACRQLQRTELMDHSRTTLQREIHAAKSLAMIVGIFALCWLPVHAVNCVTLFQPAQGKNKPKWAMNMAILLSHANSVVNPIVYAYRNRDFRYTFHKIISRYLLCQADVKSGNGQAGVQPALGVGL
Type: cell-based
Outline: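 CHO-K1 cells with CRE-driven luciferase; antagonists co-incubated with NECA at its EC50, determined in a pre-experiment on each test day. Luciferase read by luminescence 3 h after NECA addition.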
Compound `Cc1c(CN2CCNC2=S)sc2c1c(=O)n(CC(F)(F)F)c(=O)n2CC1CCCO1` (single isomer, unassigned) [Example 300, 5-Methyl-1-(tetrahydrofuran-2-ylmethyl)-6-[(2-thioxoimidazolidin-1-yl)methyl]-3-(2,2,2-trifluoroethyl)thieno[2,3-d]pyrimidine-2,4(1H,3H)-dione] has an IC50 of 0.014 µM. Compound `COCCn1c(=O)c2c(C)c(CN3CCNC3=O)sc2n(CC2CCCO2)c1=O` (single isomer, unassigned) [Example 324, 3-(2-Methoxyethyl)-5-methyl-6-[(2-oxoimidazolidin-1-yl)methyl]-1-(tetrahydrofuran-2-ylmethyl)thieno[2,3-d]pyrimidine-2,4(1H,3H)-dione] has an IC50 of 0.11 µM. In the case of `COCCn1c(=O)c2c(C)c(CN3CCNC3=O)sc2n(CC2CCCO2)c1=O` (single isomer, unassigned) [Example 325, 3-(2-Methoxyethyl)-5-methyl-6-[(2-oxoimidazolidin-1-yl)methyl]-1-(tetrahydrofuran-2-ylmethyl)thieno[2,3-d]pyrimidine-2,4(1H,3H)-dione], the IC50 is reported as 0.065 µM. `COCCn1c(=O)n(C(C)COC)c(=O)c2c(C)c(CN3CCNC3=O)sc21` (single isomer, unassigned) [Example 330, 1-(2-Methoxyethyl)-3-(1-methoxypropan-2-yl)-5-methyl-6-[(2-oxoimidazolidin-1-yl)methyl]thieno[2,3-d]pyrimidine-2,4(1H,3H)-dione] gave an IC50 of 0.22 µM. With `COCCn1c(=O)n(C(C)COC)c(=O)c2c(C)c(CN3CCNC3=O)sc21` (single isomer, unassigned) [Example 331, 1-(2-Methoxyethyl)-3-(1-methoxypropan-2-yl)-5-methyl-6-[(2-oxoimidazolidin-1-yl)methyl]thieno[2,3-d]pyrimidine-2,4(1H,3H)-dione] the IC50 was 0.061 µM. `COCCn1c(=O)n(CC2CCCO2)c(=O)c2c(C)c(CN3CCNC3=O)sc21` (single isomer, unassigned) [Example 333, 1-(2-Methoxyethyl)-5-methyl-6-[(2-oxoimidazolidin-1-yl)methyl]-3-(tetrahydrofuran-2-ylmethyl)thieno[2,3-d]pyrimidine-2,4(1H,3H)-dione] was tested, and the IC50 was 0.11 µM. `COCCn1c(=O)n(CC2CCCO2)c(=O)c2c(C)c(CN3CCNC3=O)sc21` (single isomer, unassigned) [Example 334, 1-(2-Methoxyethyl)-5-methyl-6-[(2-oxoimidazolidin-1-yl)methyl]-3-(tetrahydrofuran-2-ylmethyl)thieno[2,3-d]pyrimidine-2,4(1H,3H)-dione] gave an IC50 of 0.12 µM. With `Cc1c(Cn2cc[nH]c2=O)sc2c1c(=O)n(CC(F)(F)F)c(=O)n2CC1CCCO1` (single isomer, unassigned) [Example 342, 5-Methyl-6-[(2-oxo-2,3-dihydro-1H-imidazol-1-yl)methyl]-1-(tetrahydrofuran-2-ylmethyl)-3-(2,2,2-trifluoroethyl)thieno[2,3-d]pyrimidine-2,4(1H,3H)-dione] the IC50 was 0.013 µM. `Cc1c(Cn2cc[nH]c2=O)sc2c1c(=O)n(CC(F)(F)F)c(=O)n2CC1CCCO1` (single isomer, unassigned) [Example 343, 5-Methyl-6-[(2-oxo-2,3-dihydro-1H-imidazol-1-yl)methyl]-1-(tetrahydrofuran-2-ylmethyl)-3-(2,2,2-trifluoroethyl)thieno[2,3-d]pyrimidine-2,4(1H,3H)-dione] showed an IC50 of 0.025 µM. `COCCn1c(=O)c2c(C)c(Cn3cc[nH]c3=O)sc2n(CC2CCCO2)c1=O` (single isomer, unassigned) [Example 347, 3-(2-Methoxyethyl)-5-methyl-6-[(2-oxo-2,3-dihydro-1H-imidazol-1-yl)methyl]-1-(tetrahydrofuran-2-ylmethyl)thieno[2,3-d]pyrimidine-2,4(1H,3H)-dione] gave an IC50 of 0.056 µM. Work on `COCCn1c(=O)c2c(C)c(Cn3cc[nH]c3=O)sc2n(CC2CCCO2)c1=O` (single isomer, unassigned) [Example 348, 3-(2-Methoxyethyl)-5-methyl-6-[(2-oxo-2,3-dihydro-1H-imidazol-1-yl)methyl]-1-(tetrahydrofuran-2-ylmethyl)thieno[2,3-d]pyrimidine-2,4(1H,3H)-dione] yielded an IC50 of 0.048 µM. `Cc1c(CN2CCNC2=NC#N)sc2c1c(=O)n(C(C)C)c(=O)n2CC1CCCO1` (single isomer, unassigned) [Example 356, [1-{[3-Isopropyl-5-methyl-2,4-dioxo-1-(tetrahydrofuran-2-ylmethyl)-1,2,3,4-tetrahydrothieno[2,3-d]pyrimidin-6-yl]methyl}imidazolidin-2-ylidene]cyanamide] was tested, and the IC50 was 0.0051 µM. For `Cc1c(CN2CCNC2=NC#N)sc2c1c(=O)n(C(C)C)c(=O)n2CC1CCCO1` (single isomer, unassigned) [Example 357, [1-{[3-Isopropyl-5-methyl-2,4-dioxo-1-(tetrahydrofuran-2-ylmethyl)-1,2,3,4-tetrahydrothieno[2,3-d]pyrimidin-6-yl]methyl}imidazolidin-2-ylidene]cyanamide], the IC50 was 0.032 µM. Work on `Cc1c(CN2CCNC2=NC#N)sc2c1c(=O)n(CC(F)(F)F)c(=O)n2CC1CCCO1` (single isomer, unassigned) [Example 360, [1-{[5-Methyl-2,4-dioxo-1-(tetrahydrofuran-2-ylmethyl)-3-(2,2,2-trifluoroethyl)-1,2,3,4-tetrahydrothieno[2,3-d]pyrimidin-6-yl]methyl}imidazolidin-2-ylidene]cyanamide] yielded an IC50 of 0.01 µM. In the case of `Cc1c(CN2CCNC2=NC#N)sc2c1c(=O)n(CC(F)(F)F)c(=O)n2CC1CCCO1` (single isomer, unassigned) [Example 361, [1-{[5-Methyl-2,4-dioxo-1-(tetrahydrofuran-2-ylmethyl)-3-(2,2,2-trifluoroethyl)-1,2,3,4-tetrahydrothieno[2,3-d]pyrimidin-6-yl]methyl}imidazolidin-2-ylidene]cyanamide], the IC50 is reported as 0.013 µM. `COCCn1c(=O)c2c(C)c(CN3CCNC3=NC#N)sc2n(CC2CCO2)c1=O` (single isomer, unassigned) [Example 365, [1-{[3-Methoxyethyl-5-methyl-1-(oxetan-2-ylmethyl)-2,4-dioxo-1,2,3,4-tetrahydrothieno[2,3-d]pyrimidin-6-yl]methyl}imidazolidin-2-ylidene]cyanamide] gave an IC50 of 0.11 µM. `COCCn1c(=O)c2c(C)c(CN3CCNC3=NC#N)sc2n(CC2CCO2)c1=O` (single isomer, unassigned) [Example 366, [1-{[3-Methoxyethyl-5-methyl-1-(oxetan-2-ylmethyl)-2,4-dioxo-1,2,3,4-tetrahydrothieno[2,3-d]pyrimidin-6-yl]methyl}imidazolidin-2-ylidene]cyanamide] showed an IC50 of 0.04 µM. `COCCn1c(=O)c2c(C)c(CN3CCNC3=NC#N)sc2n(CC2CCCO2)c1=O` (single isomer, unassigned) [Example 368, [1-{[3-(2-Methoxyethyl)-5-methyl-2,4-dioxo-1-(tetrahydrofuran-2-ylmethyl)-1,2,3,4-tetrahydrothieno[2,3-d]pyrimidin-6-yl]methyl}imidazolidin-2-ylidene]cyanamide] gave an IC50 of 0.082 µM. `COCCn1c(=O)c2c(C)c(CN3CCNC3=NC#N)sc2n(CC2CCCO2)c1=O` (single isomer, unassigned) [Example 369, [1-{[3-(2-Methoxyethyl)-5-methyl-2,4-dioxo-1-(tetrahydrofuran-2-ylmethyl)-1,2,3,4-tetrahydrothieno[2,3-d]pyrimidin-6-yl]methyl}imidazolidin-2-ylidene]cyanamide] showed an IC50 of 0.033 µM. `CCn1c(=O)c2c(C)c(CN3CCNC3=NC(=O)OC)sc2n(CC2CCO2)c1=O` (single isomer, unassigned) [Example 372, Methyl [1-{[3-ethyl-5-methyl-1-(oxetan-2-ylmethyl)-2,4-dioxo-1,2,3,4-tetrahydrothieno[2,3-d]pyrimidin-6-yl]methyl}imidazolidin-2-ylidene]carbamate] showed an IC50 of 0.027 µM. Compound `CCn1c(=O)c2c(C)c(CN3CCNC3=NC(=O)OC)sc2n(CC2CCO2)c1=O` (single isomer, unassigned) [Example 373, Methyl [1-{[3-ethyl-5-methyl-1-(oxetan-2-ylmethyl)-2,4-dioxo-1,2,3,4-tetrahydrothieno[2,3-d]pyrimidin-6-yl]methyl}imidazolidin-2-ylidene]carbamate] has an IC50 of 0.0059 µM. In the case of `CCn1c(=O)c2c(C)c(CN3CCNC3=NC(=O)OC)sc2n(CC2CCCO2)c1=O` (single isomer, unassigned) [Example 375, Methyl [1-{[3-ethyl-5-methyl-2,4-dioxo-1-(tetrahydrofuran-2-ylmethyl)-1,2,3,4-tetrahydrothieno[2,3-d]pyrimidin-6-yl]methyl}imidazolidin-2-ylidene]carbamate], the IC50 is reported as 0.0063 µM. For `CCn1c(=O)c2c(C)c(CN3CCNC3=NC(=O)OC)sc2n(CC2CCCO2)c1=O` (single isomer, unassigned) [Example 376, Methyl [1-{[3-ethyl-5-methyl-2,4-dioxo-1-(tetrahydrofuran-2-ylmethyl)-1,2,3,4-tetrahydrothieno[2,3-d]pyrimidin-6-yl]methyl}imidazolidin-2-ylidene]carbamate], the IC50 was 0.0079 µM. `COCCn1c(=O)c2c(C)c(CN3CCNC3=NC(=O)OC)sc2n(CC2CCO2)c1=O` (single isomer, unassigned) [Example 388, Methyl [1-{[3-(2-methoxyethyl)-5-methyl-1-(oxetan-2-ylmethyl)-2,4-dioxo-1,2,3,4-tetrahydrothieno[2,3-d]pyrimidin-6-yl]methyl}imidazolidin-2-ylidene]carbamate] gave an IC50 of 0.033 µM. `COCCn1c(=O)c2c(C)c(CN3CCNC3=NC(=O)OC)sc2n(CC2CCO2)c1=O` (single isomer, unassigned) [Example 389, Methyl [1-{[3-(2-methoxyethyl)-5-methyl-1-(oxetan-2-ylmethyl)-2,4-dioxo-1,2,3,4-tetrahydrothieno[2,3-d]pyrimidin-6-yl]methyl}imidazolidin-2-ylidene]carbamate] gave an IC50 of 0.087 µM.

Source: patent US10428083B2, “Heterocyclylmethyl-thienouracile as antagonists of the adenosine-A2B-receptor” (BAYER PHARMA AKTIENGESELLSCHAFT, priority 2015, dated 2019)
